Molecular target: T1, Receptor-type tyrosine-protein kinase FLT3 (Homo sapiens, UniProt P36888)
T1 sequence (P36888 whole entry): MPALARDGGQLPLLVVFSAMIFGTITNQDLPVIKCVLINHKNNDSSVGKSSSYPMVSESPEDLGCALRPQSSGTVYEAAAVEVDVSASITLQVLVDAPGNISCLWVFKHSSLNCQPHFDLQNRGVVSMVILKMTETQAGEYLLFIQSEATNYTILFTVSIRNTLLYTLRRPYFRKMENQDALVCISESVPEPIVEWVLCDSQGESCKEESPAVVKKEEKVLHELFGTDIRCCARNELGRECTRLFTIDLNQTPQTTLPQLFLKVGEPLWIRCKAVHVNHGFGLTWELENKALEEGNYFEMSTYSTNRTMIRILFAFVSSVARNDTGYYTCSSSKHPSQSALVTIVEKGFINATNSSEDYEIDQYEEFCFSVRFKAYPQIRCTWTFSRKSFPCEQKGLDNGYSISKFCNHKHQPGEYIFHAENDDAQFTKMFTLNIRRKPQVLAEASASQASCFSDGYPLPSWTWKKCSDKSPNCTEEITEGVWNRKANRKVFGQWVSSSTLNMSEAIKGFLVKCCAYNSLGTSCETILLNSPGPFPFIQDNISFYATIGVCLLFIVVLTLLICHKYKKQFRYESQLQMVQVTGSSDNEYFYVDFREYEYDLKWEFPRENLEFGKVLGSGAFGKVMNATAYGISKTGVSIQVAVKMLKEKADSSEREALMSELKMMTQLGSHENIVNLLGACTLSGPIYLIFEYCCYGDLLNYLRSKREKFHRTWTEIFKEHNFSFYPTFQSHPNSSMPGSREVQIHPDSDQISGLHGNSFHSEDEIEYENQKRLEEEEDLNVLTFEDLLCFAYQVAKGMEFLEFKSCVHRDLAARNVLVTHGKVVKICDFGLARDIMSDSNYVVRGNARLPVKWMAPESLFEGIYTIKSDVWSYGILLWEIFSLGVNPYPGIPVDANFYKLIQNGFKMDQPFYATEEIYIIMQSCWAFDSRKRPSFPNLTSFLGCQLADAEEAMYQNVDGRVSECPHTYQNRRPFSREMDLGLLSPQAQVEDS
Assay: Inhibition of FLT3 (unknown origin)

## N[C@H]1CC[C@@H](Nc2cncc(-c3cccc(CC4SC(=O)NC4=O)c3)n2)CC1 (stereo partly specified)
  IC50: 0.11 nM

— ChEMBL document CHEMBL5532678, “Comprehensive Insights that Targeting PIM for Cancer Therapy: Prospects and Obstacles” (J Med Chem, 2024)
